# Activity calls are given as the source filed them. The rule behind the calls is not given here.
# Legend:
# [1] = Cytotoxicity against human RXF 1781L cells after 4 days by propidium iodide staining-based fluorometric analysis; assay type: functional, cell-based; settings: 96 h
# [2] = Cytotoxicity against human LXFL 1121L cells after 4 days by propidium iodide staining-based fluorometric analysis; assay type: functional, cell-based; settings: 96 h
# [3] = Cytotoxicity against human CXF 269L cells after 4 days by propidium iodide staining-based fluorometric analysis; assay type: functional, cell-based; settings: 96 h
# [4] = Cytotoxicity against human MEXF 462NL cells after 4 days by propidium iodide staining-based fluorometric analysis; assay type: functional, cell-based; settings: 96 h
# [5] = Cytotoxicity against human LIXF 575L cells after 4 days by propidium iodide staining-based fluorometric analysis; assay type: functional, cell-based; settings: 96 h
# RKO = experiment: Cytotoxicity against human RKO cells after 4 days by propidium iodide staining-based fluorometric analysis; assay type: functional, cell-based; settings: 96 h
# [6] = biological target: Hepatocyte growth factor receptor (Homo sapiens) (UniProt P08581); experiment: Inhibition of MET using poly(Ala, Glu, Lys, Tyr) as substrate and [gamma33P]ATP at 1 uM after 60 mins by scintillation counting
# HCT-116 = experiment: Cytotoxicity against human HCT116 cells after 4 days by propidium iodide staining-based fluorometric analysis; assay type: functional, cell-based; settings: HCT-116, 96 h
# [7] = Cytotoxicity against human PAXF 546L cells after 4 days by propidium iodide staining-based fluorometric analysis; assay type: functional, cell-based; settings: 96 h
# NCI-H460 = experiment: Cytotoxicity against human H460 cells after 4 days by propidium iodide staining-based fluorometric analysis; assay type: functional, cell-based; settings: NCI-H460, 96 h
# CWR22R = experiment: Cytotoxicity against human 22Rv1 cells after 4 days by propidium iodide staining-based fluorometric analysis; assay type: functional, cell-based; settings: 22Rv1, 96 h
# [8] = Cytotoxicity against human BXF T24 cells after 4 days by propidium iodide staining-based fluorometric analysis; assay type: functional, cell-based; settings: T-24, 96 h
# [9] = Cytotoxicity against human BXF 1218L cells after 4 days by propidium iodide staining-based fluorometric analysis; assay type: functional, cell-based; settings: 96 h
# [10] = Cytotoxicity against human LXFA 289L cells after 4 days by propidium iodide staining-based fluorometric analysis; assay type: functional, cell-based; settings: 96 h
# [11] = Cytotoxicity against human MEXF 1341L cells after 4 days by propidium iodide staining-based fluorometric analysis; assay type: functional, cell-based; settings: 96 h
# SAOS-2 = experiment: Cytotoxicity against human Saos2 cells after 4 days by propidium iodide staining-based fluorometric analysis; assay type: functional, cell-based; settings: SAOS-2, 96 h
# [12] = Cytotoxicity against human PXF 1118L cells after 4 days by propidium iodide staining-based fluorometric analysis; assay type: functional, cell-based; settings: 96 h
# [13] = Cytotoxicity against human DIFI cells after 4 days by propidium iodide staining-based fluorometric analysis; assay type: functional, cell-based; settings: 96 h
# [14] = Cytotoxicity against human PXF 698L cells after 4 days by propidium iodide staining-based fluorometric analysis; assay type: functional, cell-based; settings: 96 h
# [15] = Cytotoxicity against human PAXF 1657L cells after 4 days by propidium iodide staining-based fluorometric analysis; assay type: functional, cell-based; settings: 96 h
# [16] = biological target: Vascular endothelial growth factor receptor 2 (Homo sapiens) (UniProt P35968); experiment: Inhibition of VEGFR2 using poly(Glu,Tyr)4:1 as substrate and [gamma33P]ATP at 1 uM after 60 mins by scintillation counting
# [17] = Cytotoxicity against human RXF 393NL cells after 4 days by propidium iodide staining-based fluorometric analysis; assay type: functional, cell-based; settings: 96 h
# [18] = Cytotoxicity against human PXF 1752L cells after 4 days by propidium iodide staining-based fluorometric analysis; assay type: functional, cell-based; settings: 96 h
# [19] = biological target: Receptor tyrosine-protein kinase erbB-2 (Homo sapiens) (UniProt P04626); experiment: Inhibition of Erbb2 using poly(Glu,Tyr)4:1 as substrate and [gamma33P]ATP at 1 uM after 60 mins by scintillation counting
# [20] = Cytotoxicity against human PC3M cells after 4 days by propidium iodide staining-based fluorometric analysis; assay type: functional, cell-based; settings: PC-3M, 96 h
# [21] = Cytotoxicity against human MDA231 cells after 4 days by propidium iodide staining-based fluorometric analysis; assay type: functional, cell-based; settings: MDA-MB-231, 96 h
# [22] = biological target: T1, Epidermal growth factor receptor (Homo sapiens, UniProt P00533); experiment: Inhibition of EGFR using poly(Glu,Tyr)4:1 as substrate and [gamma33P]ATP at 1 uM after 60 mins by scintillation counting
# PANC-1 = experiment: Cytotoxicity against human PANC1 cells after 4 days by propidium iodide staining-based fluorometric analysis; assay type: functional, cell-based; settings: PANC-1, 96 h
# [23] = Cytotoxicity against human LXFA 526L cells after 4 days by propidium iodide staining-based fluorometric analysis; assay type: functional, cell-based; settings: 96 h
# [24] = biological target: Tyrosine-protein kinase ABL1 (Homo sapiens) (UniProt P00519); experiment: Inhibition of ABL1 using poly(Ala, Glu, Lys, Tyr) as substrate and [gamma33P]ATP at 1 uM after 60 mins by scintillation counting
# [25] = Cytotoxicity against human BXF 1352L cells after 4 days by propidium iodide staining-based fluorometric analysis; assay type: functional, cell-based; settings: 96 h
# CAL-27 = experiment: Cytotoxicity against human CAL27 cells after 4 days by propidium iodide staining-based fluorometric analysis; assay type: functional, cell-based; settings: CAL-27, 96 h
# [26] = biological target: T1, Epidermal growth factor receptor; experiment: Inhibition of EGFR using poly(Glu,Tyr)4:1 as substrate and [gamma33P]ATP after 60 mins by scintillation counting
# [27] = Cytotoxicity against human OVXF 899L cells after 4 days by propidium iodide staining-based fluorometric analysis; assay type: functional, cell-based; settings: 96 h
# [28] = Cytotoxicity against human MAXF 401NL cells after 4 days by propidium iodide staining-based fluorometric analysis; assay type: functional, cell-based; settings: 96 h
# HT-29 = experiment: Cytotoxicity against human HT-29 cells after 4 days by propidium iodide staining-based fluorometric analysis; assay type: functional, cell-based; settings: HT-29, 96 h
# MKN-45 = experiment: Cytotoxicity against human MKN45 cells after 4 days by propidium iodide staining-based fluorometric analysis; assay type: functional, cell-based; settings: MKN-45, 96 h
# [29] = Cytotoxicity against human UXF 1138L cells after 4 days by propidium iodide staining-based fluorometric analysis; assay type: functional, cell-based; settings: 96 h
# DU-145 = experiment: Cytotoxicity against human DU145 cells after 4 days by propidium iodide staining-based fluorometric analysis; assay type: functional, cell-based; settings: DU-145, 96 h
# [30] = Cytotoxicity against human RXF 486L cells after 4 days by propidium iodide staining-based fluorometric analysis; assay type: functional, cell-based; settings: 96 h
# [31] = Cytotoxicity against human MEXF 276L cells after 4 days by propidium iodide staining-based fluorometric analysis; assay type: functional, cell-based; settings: MEXF276L, 96 h
# OVCAR-3 = experiment: Cytotoxicity against human OVCAR3 cells after 4 days by propidium iodide staining-based fluorometric analysis; assay type: functional, cell-based; settings: OVCAR-3, 96 h
# LNCaP = experiment: Cytotoxicity against human LNCAP cells after 4 days by propidium iodide staining-based fluorometric analysis; assay type: functional, cell-based; settings: 96 h
# MCF7 = experiment: Cytotoxicity against human MCF7 cells after 4 days by propidium iodide staining-based fluorometric analysis; assay type: functional, cell-based; settings: MCF7, 96 h
# [32] = Cytotoxicity against human LXFA 629L cells after 4 days by propidium iodide staining-based fluorometric analysis; assay type: functional, cell-based; settings: 96 h
# [33] = Cytotoxicity against human GXF251L cells after 4 days by propidium iodide staining-based fluorometric analysis; assay type: functional, cell-based; settings: GXF 251L, 96 h
# TE-671 = experiment: Cytotoxicity against human TE671 cells after 4 days by propidium iodide staining-based fluorometric analysis; assay type: functional, cell-based; settings: TE-671, 96 h
# [34] = Cytotoxicity against human LXFL 529L cells after 4 days by propidium iodide staining-based fluorometric analysis; assay type: functional, cell-based; settings: 96 h
# Tyrosine-protein kinase ABL1 (Homo sapiens), sequence (P00519 whole entry): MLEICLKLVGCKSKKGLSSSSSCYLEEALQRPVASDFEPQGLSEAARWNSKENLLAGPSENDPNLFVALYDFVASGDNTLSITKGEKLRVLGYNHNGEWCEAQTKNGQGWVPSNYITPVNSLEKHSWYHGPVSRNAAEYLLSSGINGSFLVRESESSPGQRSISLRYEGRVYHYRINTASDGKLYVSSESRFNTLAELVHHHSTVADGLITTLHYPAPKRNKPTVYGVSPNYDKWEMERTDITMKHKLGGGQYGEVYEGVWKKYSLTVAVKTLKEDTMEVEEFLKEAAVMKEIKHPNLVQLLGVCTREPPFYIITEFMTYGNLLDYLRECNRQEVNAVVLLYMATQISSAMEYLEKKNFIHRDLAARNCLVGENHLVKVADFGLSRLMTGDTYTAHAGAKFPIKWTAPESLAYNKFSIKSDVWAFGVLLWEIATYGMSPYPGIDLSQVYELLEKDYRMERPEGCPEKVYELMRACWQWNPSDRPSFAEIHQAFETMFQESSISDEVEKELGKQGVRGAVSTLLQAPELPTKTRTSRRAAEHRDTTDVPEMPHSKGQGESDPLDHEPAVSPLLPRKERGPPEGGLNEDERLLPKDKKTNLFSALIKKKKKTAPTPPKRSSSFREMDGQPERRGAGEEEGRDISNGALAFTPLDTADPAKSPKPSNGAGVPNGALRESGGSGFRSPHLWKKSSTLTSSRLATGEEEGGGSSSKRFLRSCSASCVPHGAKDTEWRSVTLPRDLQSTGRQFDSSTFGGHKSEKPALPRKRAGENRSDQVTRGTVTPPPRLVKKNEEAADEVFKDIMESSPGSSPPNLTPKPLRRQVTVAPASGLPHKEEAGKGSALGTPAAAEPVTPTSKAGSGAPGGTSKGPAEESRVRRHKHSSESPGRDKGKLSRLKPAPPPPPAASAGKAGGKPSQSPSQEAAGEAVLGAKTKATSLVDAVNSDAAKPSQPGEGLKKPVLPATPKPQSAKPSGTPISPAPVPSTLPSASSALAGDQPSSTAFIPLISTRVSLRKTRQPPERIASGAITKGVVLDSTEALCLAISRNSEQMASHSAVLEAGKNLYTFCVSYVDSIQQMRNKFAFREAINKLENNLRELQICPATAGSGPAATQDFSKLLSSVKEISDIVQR
# Hepatocyte growth factor receptor (Homo sapiens), sequence (P08581 whole entry): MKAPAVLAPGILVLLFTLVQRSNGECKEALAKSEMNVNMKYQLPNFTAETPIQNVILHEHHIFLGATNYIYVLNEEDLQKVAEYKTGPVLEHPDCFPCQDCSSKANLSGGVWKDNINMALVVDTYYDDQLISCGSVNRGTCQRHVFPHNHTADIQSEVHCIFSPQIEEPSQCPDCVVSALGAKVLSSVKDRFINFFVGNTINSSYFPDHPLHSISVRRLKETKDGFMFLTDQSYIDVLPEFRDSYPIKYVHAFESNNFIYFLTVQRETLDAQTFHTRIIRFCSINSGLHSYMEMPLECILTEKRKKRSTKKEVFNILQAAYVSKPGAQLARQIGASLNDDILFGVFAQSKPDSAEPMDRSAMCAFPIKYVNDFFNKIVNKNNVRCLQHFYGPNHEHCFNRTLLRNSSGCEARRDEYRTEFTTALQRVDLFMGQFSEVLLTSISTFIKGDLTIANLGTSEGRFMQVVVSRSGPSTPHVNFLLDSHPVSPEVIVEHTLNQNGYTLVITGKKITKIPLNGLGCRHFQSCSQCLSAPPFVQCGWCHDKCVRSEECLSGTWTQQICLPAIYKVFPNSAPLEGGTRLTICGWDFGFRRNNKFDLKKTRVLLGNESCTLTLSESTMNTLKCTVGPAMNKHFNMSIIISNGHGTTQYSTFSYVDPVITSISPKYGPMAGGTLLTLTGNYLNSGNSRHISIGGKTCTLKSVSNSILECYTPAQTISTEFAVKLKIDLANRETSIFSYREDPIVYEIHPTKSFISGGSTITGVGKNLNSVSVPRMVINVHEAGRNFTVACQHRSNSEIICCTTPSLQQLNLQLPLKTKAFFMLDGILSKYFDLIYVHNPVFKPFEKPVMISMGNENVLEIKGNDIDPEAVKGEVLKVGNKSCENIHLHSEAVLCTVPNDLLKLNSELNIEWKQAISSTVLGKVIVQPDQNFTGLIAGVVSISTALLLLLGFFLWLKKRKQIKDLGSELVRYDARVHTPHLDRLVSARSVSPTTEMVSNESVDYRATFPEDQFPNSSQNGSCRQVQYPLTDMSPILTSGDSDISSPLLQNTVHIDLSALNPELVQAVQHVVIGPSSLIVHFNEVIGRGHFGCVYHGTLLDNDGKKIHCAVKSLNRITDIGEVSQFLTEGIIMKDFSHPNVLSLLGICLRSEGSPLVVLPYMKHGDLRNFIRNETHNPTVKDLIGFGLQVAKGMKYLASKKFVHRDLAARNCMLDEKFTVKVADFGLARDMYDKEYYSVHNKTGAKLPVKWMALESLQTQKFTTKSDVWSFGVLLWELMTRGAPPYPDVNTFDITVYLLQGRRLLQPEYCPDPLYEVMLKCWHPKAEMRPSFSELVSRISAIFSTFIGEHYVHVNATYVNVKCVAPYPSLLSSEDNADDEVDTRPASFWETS
# T1 sequence (P00533 whole entry): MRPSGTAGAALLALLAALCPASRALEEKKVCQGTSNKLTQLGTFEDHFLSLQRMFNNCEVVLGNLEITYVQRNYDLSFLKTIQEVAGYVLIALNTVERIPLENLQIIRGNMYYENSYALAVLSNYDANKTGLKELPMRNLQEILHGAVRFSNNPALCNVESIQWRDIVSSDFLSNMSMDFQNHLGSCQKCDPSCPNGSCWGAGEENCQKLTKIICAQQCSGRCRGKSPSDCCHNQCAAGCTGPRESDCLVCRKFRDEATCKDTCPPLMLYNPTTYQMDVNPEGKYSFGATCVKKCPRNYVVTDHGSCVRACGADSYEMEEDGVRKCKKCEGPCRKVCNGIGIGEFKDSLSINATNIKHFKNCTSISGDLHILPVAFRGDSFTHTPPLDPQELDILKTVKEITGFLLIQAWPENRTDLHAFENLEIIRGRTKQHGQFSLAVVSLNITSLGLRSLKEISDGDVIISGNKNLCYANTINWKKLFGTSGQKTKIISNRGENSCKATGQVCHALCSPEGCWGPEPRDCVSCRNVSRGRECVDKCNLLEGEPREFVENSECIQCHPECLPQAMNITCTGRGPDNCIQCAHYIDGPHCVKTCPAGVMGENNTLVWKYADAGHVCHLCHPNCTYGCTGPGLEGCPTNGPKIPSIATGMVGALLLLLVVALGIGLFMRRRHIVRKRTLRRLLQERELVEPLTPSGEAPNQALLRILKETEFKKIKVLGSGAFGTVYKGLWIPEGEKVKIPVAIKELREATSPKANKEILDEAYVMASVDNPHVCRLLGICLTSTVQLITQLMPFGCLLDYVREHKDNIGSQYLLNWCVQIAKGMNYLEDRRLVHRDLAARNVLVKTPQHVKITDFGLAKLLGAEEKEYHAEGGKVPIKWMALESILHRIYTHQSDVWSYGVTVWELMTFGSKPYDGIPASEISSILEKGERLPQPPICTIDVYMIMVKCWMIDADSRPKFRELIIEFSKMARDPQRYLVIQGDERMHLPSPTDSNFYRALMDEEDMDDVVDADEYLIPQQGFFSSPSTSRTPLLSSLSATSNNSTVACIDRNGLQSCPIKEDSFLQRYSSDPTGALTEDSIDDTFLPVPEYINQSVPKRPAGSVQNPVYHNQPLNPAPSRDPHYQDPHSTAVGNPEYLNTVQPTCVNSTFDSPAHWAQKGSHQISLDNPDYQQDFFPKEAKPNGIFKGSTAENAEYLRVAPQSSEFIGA
# Receptor tyrosine-protein kinase erbB-2 (Homo sapiens), sequence (P04626 whole entry): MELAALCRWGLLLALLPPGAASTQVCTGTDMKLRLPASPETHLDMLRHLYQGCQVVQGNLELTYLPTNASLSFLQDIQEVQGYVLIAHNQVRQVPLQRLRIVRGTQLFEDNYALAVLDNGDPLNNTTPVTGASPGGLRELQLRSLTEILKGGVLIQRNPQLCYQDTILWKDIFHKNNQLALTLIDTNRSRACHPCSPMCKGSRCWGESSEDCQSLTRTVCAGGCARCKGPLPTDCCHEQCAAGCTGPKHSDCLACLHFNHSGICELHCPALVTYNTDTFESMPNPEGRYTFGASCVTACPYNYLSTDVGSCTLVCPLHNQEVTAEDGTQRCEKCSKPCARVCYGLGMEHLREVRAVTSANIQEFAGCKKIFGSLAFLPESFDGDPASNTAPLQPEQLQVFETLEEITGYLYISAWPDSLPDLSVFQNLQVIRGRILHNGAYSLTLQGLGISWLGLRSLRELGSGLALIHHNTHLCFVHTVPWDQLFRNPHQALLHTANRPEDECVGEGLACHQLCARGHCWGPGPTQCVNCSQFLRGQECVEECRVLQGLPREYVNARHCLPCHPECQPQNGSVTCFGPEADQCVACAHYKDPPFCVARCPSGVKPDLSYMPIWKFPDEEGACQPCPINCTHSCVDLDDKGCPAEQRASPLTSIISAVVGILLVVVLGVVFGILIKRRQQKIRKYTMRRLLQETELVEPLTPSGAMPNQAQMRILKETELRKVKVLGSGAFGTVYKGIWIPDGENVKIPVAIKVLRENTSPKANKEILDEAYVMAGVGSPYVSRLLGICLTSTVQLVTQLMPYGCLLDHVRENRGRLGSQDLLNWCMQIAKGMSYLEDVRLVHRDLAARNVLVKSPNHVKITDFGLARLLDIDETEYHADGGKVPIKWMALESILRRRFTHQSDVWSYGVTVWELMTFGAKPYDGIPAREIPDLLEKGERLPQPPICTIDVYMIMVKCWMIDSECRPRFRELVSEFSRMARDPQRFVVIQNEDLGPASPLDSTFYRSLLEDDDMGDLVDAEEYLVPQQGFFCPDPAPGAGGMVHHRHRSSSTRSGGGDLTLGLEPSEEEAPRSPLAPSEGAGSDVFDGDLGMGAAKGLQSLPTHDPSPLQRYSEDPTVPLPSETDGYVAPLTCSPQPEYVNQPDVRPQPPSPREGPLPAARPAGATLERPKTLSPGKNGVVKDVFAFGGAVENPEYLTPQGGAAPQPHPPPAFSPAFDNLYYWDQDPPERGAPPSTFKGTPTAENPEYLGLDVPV
structure (smiles),measurement,setting,value
COc1ccc2[nH]c(C(=O)c3cc4c(Nc5ccc(F)c(Cl)c5)ncnc4s3)cc2c1,IC50,[1],30.4 µM
same,IC50,[2],9 µM
same,IC50,[3],11.7 µM
same,IC50,[4],16.7 µM
same,IC50,[5],9.3 µM
same,IC50,RKO,15.8 µM
same,inhibition,[6],inactive
same,IC50,HCT-116,12.1 µM
same,IC50,[7],14.1 µM
same,IC50,NCI-H460,15 µM
same,IC50,CWR22R,11.1 µM
same,IC50,[8],17.8 µM
same,IC50,[9],15.4 µM
same,IC50,[10],7.1 µM
same,IC50,[11],14.4 µM
same,IC50,SAOS-2; read-out: IC50,30.1 µM
same,IC50,[12],62.9 µM
same,IC50,[13],1 µM
same,IC50,[14],26.7 µM
same,IC50,[15],24.6 µM
same,inhibition,[16],55%
same,IC50,[17],21.1 µM
same,IC50,[18],36 µM
same,inhibition,[19],60%
same,IC50,[20],46.3 µM
same,IC50,[21],17.1 µM
same,inhibition,[22],96%
same,IC50,PANC-1,28.4 µM
same,IC50,[23],28.5 µM
same,inhibition,[24],inactive
same,IC50,[25],24.8 µM
same,IC50,CAL-27,1.6 µM
same,IC50,[26],0.00593 µM
same,IC50,[27],19 µM
same,IC50,[28],4.2 µM
same,IC50,HT-29,9.8 µM
same,IC50,MKN-45,38.2 µM
same,IC50,[29],4.9 µM
same,IC50,DU-145,19.4 µM
same,IC50,[30],10.2 µM
same,IC50,[31],31 µM
same,IC50,OVCAR-3,24.6 µM
same,IC50,LNCaP,32.5 µM
same,IC50,MCF7,11.3 µM
same,IC50,[32],5 µM
same,IC50,[33],3.9 µM
same,IC50,TE-671,55 µM
same,IC50,[34],14.8 µM
C#Cc1cccc(Nc2ncnc3cc(OCCOC)c(OCCOC)cc23)c1 [ERLOTINIB],IC50,[1],76.7 µM
same,IC50,[2],34.6 µM
same,IC50,[3],16 µM
same,IC50,[4],100 µM
same,IC50,[5],47.2 µM
same,IC50,RKO,100 µM
same,inhibition,[6],inactive
same,IC50,HCT-116,65.8 µM
same,IC50,[7],10 µM
same,IC50,NCI-H460,74.3 µM
same,IC50,CWR22R,100 µM
same,IC50,[8],13.9 µM
same,IC50,[9],96 µM
same,IC50,[10],1.78 µM
same,IC50,[11],30.1 µM
same,IC50,SAOS-2,21 µM
same,IC50,[12],76.7 µM
same,IC50,[13],0.14 µM
same,IC50,[14],36.4 µM
same,IC50,[15],64.3 µM
same,IC50,[17],45.6 µM
same,IC50,[18],31.6 µM
same,IC50,[20],17.2 µM
same,IC50,[21],34.5 µM
same,IC50,PANC-1,75.8 µM
same,IC50,[23],100 µM
same,inhibition,[24],inactive
same,IC50,[25],87.8 µM
same,IC50,CAL-27,0.239 µM
same,IC50,[27],8.77 µM
same,IC50,[28],25 µM
same,IC50,HT-29,100 µM
same,IC50,MKN-45,76.7 µM
same,IC50,[29],24.5 µM
same,IC50,DU-145,0.966 µM
same,IC50,[30],10 µM
same,IC50,[31],18.6 µM
same,IC50,OVCAR-3,100 µM
same,IC50,LNCaP,6.63 µM
same,IC50,MCF7,100 µM
same,IC50,[32],0.66 µM
same,IC50,[33],0.369 µM
same,IC50,TE-671,100 µM
same,IC50,[34],17.4 µM
CS(=O)(=O)CCNCc1ccc(-c2ccc3ncnc(Nc4ccc(OCc5cccc(F)c5)c(Cl)c4)c3c2)o1 [LAPATINIB],IC50,[1],7.67 µM
same,IC50,[2],7.73 µM
same,IC50,[3],8.36 µM
same,IC50,[4],10.1 µM
same,IC50,[5],7.18 µM
same,IC50,RKO,5.35 µM
same,inhibition,[6],inactive
same,IC50,HCT-116,13.1 µM
same,IC50,[7],6.12 µM
same,IC50,NCI-H460,13.5 µM
same,IC50,CWR22R,6.06 µM
same,IC50,[8],9.65 µM
same,IC50,[9],11.8 µM
same,IC50,[10],5.79 µM
same,IC50,[11],4.85 µM
same,IC50,SAOS-2; read-out: IC50,9.38 µM
same,IC50,[12],6.86 µM
same,IC50,[13],0.235 µM
same,IC50,[14],9.49 µM
same,IC50,[15],11.1 µM
same,IC50,[17],7.77 µM
same,IC50,[18],9.46 µM
same,IC50,[20],4.55 µM
same,IC50,[21],7.7 µM
same,IC50,PANC-1,8.12 µM
same,IC50,[23],4.21 µM
same,inhibition,[24],inactive
same,IC50,[25],11.5 µM
same,IC50,CAL-27,0.53 µM
same,IC50,[27],3.35 µM
same,IC50,[28],5.8 µM
same,IC50,HT-29,4.62 µM
same,IC50,MKN-45,11.5 µM
same,IC50,[29],4.4 µM
same,IC50,DU-145,2.99 µM
same,IC50,[30],9.1 µM
same,IC50,[31],11.4 µM
same,IC50,OVCAR-3,13.4 µM
same,IC50,LNCaP,3.68 µM
same,IC50,MCF7,4.83 µM
same,IC50,[32],2.87 µM
same,IC50,[33],1.48 µM
same,IC50,TE-671,11 µM
same,IC50,[34],3.51 µM
